In PubChem BioAssay (NCI):
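Tested at 5 concentrations; 48 h exposure; 96-well plates; endpoints linearly interpolated, else capped at highest concentration. GI50: concentration for 50% inhibition of growth. TGI: concentration producing complete growth inhibition.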

Experiments:
Experiment in all cases: NCI tumour cell line growth inhibition, 48 h
SNB-75 CNS = tested on: SNB-75 CNS
MDA-MB-435 = tested on: MDA-MB-435
TK-10 renal = tested on: TK-10 renal
DU-145 prostate = tested on: DU-145 prostate
ACHN renal = tested on: ACHN renal
SK-MEL-5 melanoma = tested on: SK-MEL-5 melanoma
COLO 205 colon = tested on: COLO 205 colon
A549 NSCLC = tested on: A549 NSCLC
M14 melanoma = tested on: M14 melanoma
HL-60(TB) leukemia = tested on: HL-60(TB) leukemia
SR leukemia = tested on: SR leukemia
NCI-H522 lung = tested on: NCI-H522 lung
MDA-MB-231 breast = tested on: MDA-MB-231 breast
HOP-62 NSCLC = tested on: HOP-62 NSCLC
MCF7 breast = tested on: MCF7 breast
SF-268 CNS = tested on: SF-268 CNS
MALME-3M melanoma = tested on: MALME-3M melanoma
SF-539 CNS = tested on: SF-539 CNS
SN12C renal = tested on: SN12C renal
SNB-19 CNS = tested on: SNB-19 CNS
SK-OV-3 ovarian = tested on: SK-OV-3 ovarian
HCC-2998 colon = tested on: HCC-2998 colon
NCI-H460 lung = tested on: NCI-H460 lung
HCT-15 colon = tested on: HCT-15 colon
UACC-257 melanoma = tested on: UACC-257 melanoma
UACC-62 melanoma = tested on: UACC-62 melanoma
SF-295 CNS = tested on: SF-295 CNS
RPMI-8226 leukemia = tested on: RPMI-8226 leukemia
NCI-H23 lung = tested on: NCI-H23 lung
786-0 renal = tested on: 786-0 renal
NCI-H226 lung = tested on: NCI-H226 lung
OVCAR-8 ovarian = tested on: OVCAR-8 ovarian
HT29 colon = tested on: HT29 colon
HCT-116 colon = tested on: HCT-116 colon
UO-31 renal = tested on: UO-31 renal
EKVX NSCLC = tested on: EKVX NSCLC
BT-549 breast = tested on: BT-549 breast
A498 renal = tested on: A498 renal
RXF 393 renal = tested on: RXF 393 renal
CAKI-1 renal = tested on: CAKI-1 renal
NCI/ADR-RES ovarian = tested on: NCI/ADR-RES ovarian
LOX IMVI melanoma = tested on: LOX IMVI melanoma
HOP-92 NSCLC = tested on: HOP-92 NSCLC
CCRF-CEM leukemia = tested on: CCRF-CEM leukemia
U251 CNS = tested on: U251 CNS
SK-MEL-2 melanoma = tested on: SK-MEL-2 melanoma
KM12 colon = tested on: KM12 colon
SK-MEL-28 melanoma = tested on: SK-MEL-28 melanoma
PC-3 prostate = tested on: PC-3 prostate
T-47D breast = tested on: T-47D breast
HS 578T breast = tested on: HS 578T breast
SW-620 colon = tested on: SW-620 colon
K-562 leukemia = tested on: K-562 leukemia
OVCAR-4 ovarian = tested on: OVCAR-4 ovarian
IGROV1 ovarian = tested on: IGROV1 ovarian
OVCAR-5 ovarian = tested on: OVCAR-5 ovarian
MOLT-4 leukemia = tested on: MOLT-4 leukemia

With `Cn1ccnc1C(=O)/C=C/c1ccc(NC(=O)c2ccc(F)cc2)cc1` the GI50 (SNB-75 CNS) was 1.23 µM, the TGI (SNB-75 CNS) was 28.7 µM and the GI50 (MDA-MB-435) was 3.84 µM. For the same compound, the TGI (MDA-MB-435) was over 33.3 µM, the GI50 (TK-10 renal) was 10.3 µM and the TGI (TK-10 renal) was over 33.3 µM. For the same compound, the GI50 (DU-145 prostate) was 1.33 µM, the TGI (DU-145 prostate) was over 33.3 µM and the GI50 (ACHN renal) was 4.85 µM. The TGI (ACHN renal) was 11.8 µM, the GI50 (SK-MEL-5 melanoma) was 17.6 µM and the TGI (SK-MEL-5 melanoma) was over 33.3 µM. For the same compound, the GI50 (COLO 205 colon) was 3.39 µM, the TGI (COLO 205 colon) was 17.8 µM and the GI50 (A549 NSCLC) was 6.75 µM. It also gave a TGI (A549 NSCLC) of over 33.3 µM, a GI50 (M14 melanoma) of 8.52 µM and a TGI (M14 melanoma) of over 33.3 µM. For the same compound, the GI50 (HL-60(TB) leukemia) was 2.9 µM, the TGI (HL-60(TB) leukemia) was 31.8 µM and the GI50 (SR leukemia) was 0.903 µM. For the same compound, the TGI (SR leukemia) was over 33.3 µM, the GI50 (NCI-H522 lung) was 5.52 µM and the TGI (NCI-H522 lung) was 14.2 µM. It also gave a GI50 (MDA-MB-231 breast) of 6.54 µM, a TGI (MDA-MB-231 breast) of over 33.3 µM and a GI50 (HOP-62 NSCLC) of 5.39 µM. The TGI (HOP-62 NSCLC) was 26.8 µM, the GI50 (MCF7 breast) was 1.64 µM and the TGI (MCF7 breast) was over 33.3 µM. The GI50 (SF-268 CNS) was 4.94 µM, the TGI (SF-268 CNS) was over 33.3 µM and the GI50 (MALME-3M melanoma) was 18.1 µM. The TGI (MALME-3M melanoma) was over 33.3 µM, the GI50 (SF-539 CNS) was 2.5 µM and the TGI (SF-539 CNS) was 10.5 µM. For the same compound, the GI50 (SN12C renal) was 6.56 µM, the TGI (SN12C renal) was over 33.3 µM and the GI50 (SNB-19 CNS) was 4.96 µM. It also gave a TGI (SNB-19 CNS) of over 33.3 µM, a GI50 (SK-OV-3 ovarian) of 8.29 µM and a TGI (SK-OV-3 ovarian) of over 33.3 µM. For the same compound, the GI50 (HCC-2998 colon) was 6.99 µM, the TGI (HCC-2998 colon) was over 33.3 µM and the GI50 (NCI-H460 lung) was 1.79 µM. It also gave a TGI (NCI-H460 lung) of 7.85 µM, a GI50 (HCT-15 colon) of 1.38 µM and a TGI (HCT-15 colon) of 12.7 µM. The GI50 (UACC-257 melanoma) was 17.9 µM, the TGI (UACC-257 melanoma) was over 33.3 µM and the GI50 (UACC-62 melanoma) was 9.5 µM. The TGI (UACC-62 melanoma) was over 33.3 µM, the GI50 (SF-295 CNS) was 8.15 µM and the TGI (SF-295 CNS) was over 33.3 µM. The GI50 (RPMI-8226 leukemia) was 1.15 µM, the TGI (RPMI-8226 leukemia) was 12.3 µM and the GI50 (NCI-H23 lung) was 5.89 µM. The TGI (NCI-H23 lung) was over 33.3 µM, the GI50 (786-0 renal) was 6.82 µM and the TGI (786-0 renal) was over 33.3 µM. For the same compound, the GI50 (NCI-H226 lung) was 4.76 µM, the TGI (NCI-H226 lung) was over 33.3 µM and the GI50 (OVCAR-8 ovarian) was 5.88 µM. The TGI (OVCAR-8 ovarian) was over 33.3 µM, the GI50 (HT29 colon) was 2.22 µM and the TGI (HT29 colon) was over 33.3 µM. The GI50 (HCT-116 colon) was 1.47 µM, the TGI (HCT-116 colon) was 12.9 µM and the GI50 (UO-31 renal) was 3.43 µM. The TGI (UO-31 renal) was over 33.3 µM, the GI50 (EKVX NSCLC) was 6.27 µM and the TGI (EKVX NSCLC) was over 33.3 µM. It also gave a GI50 (BT-549 breast) of 1.53 µM, a TGI (BT-549 breast) of 24.7 µM and a GI50 (A498 renal) of 5.68 µM. The TGI (A498 renal) was 17.1 µM, the GI50 (RXF 393 renal) was 3.33 µM and the TGI (RXF 393 renal) was 15.3 µM. For the same compound, the GI50 (CAKI-1 renal) was 1.63 µM, the TGI (CAKI-1 renal) was over 33.3 µM and the GI50 (NCI/ADR-RES ovarian) was 5.28 µM. The TGI (NCI/ADR-RES ovarian) was over 33.3 µM, the GI50 (LOX IMVI melanoma) was 1.31 µM and the TGI (LOX IMVI melanoma) was 5.55 µM. It also gave a GI50 (HOP-92 NSCLC) of 8.15 µM, a TGI (HOP-92 NSCLC) of over 33.3 µM and a GI50 (CCRF-CEM leukemia) of 1.46 µM. The TGI (CCRF-CEM leukemia) was over 33.3 µM, the GI50 (U251 CNS) was 2.92 µM and the TGI (U251 CNS) was over 33.3 µM. For the same compound, the GI50 (SK-MEL-2 melanoma) was 7.96 µM, the TGI (SK-MEL-2 melanoma) was over 33.3 µM and the GI50 (KM12 colon) was 1.22 µM. For the same compound, the TGI (KM12 colon) was 10.9 µM, the GI50 (SK-MEL-28 melanoma) was 10.1 µM and the TGI (SK-MEL-28 melanoma) was over 33.3 µM. It also gave a GI50 (PC-3 prostate) of 5 µM, a TGI (PC-3 prostate) of over 33.3 µM and a GI50 (T-47D breast) of 2.02 µM. For the same compound, the TGI (T-47D breast) was over 33.3 µM, the GI50 (HS 578T breast) was 7.06 µM and the TGI (HS 578T breast) was over 33.3 µM. The GI50 (SW-620 colon) was 1.39 µM, the TGI (SW-620 colon) was 8.51 µM and the GI50 (K-562 leukemia) was 1.1 µM. The TGI (K-562 leukemia) was over 33.3 µM, the GI50 (OVCAR-4 ovarian) was 6.37 µM and the TGI (OVCAR-4 ovarian) was over 33.3 µM. For the same compound, the GI50 (IGROV1 ovarian) was 3.72 µM, the TGI (IGROV1 ovarian) was over 33.3 µM and the GI50 (OVCAR-5 ovarian) was 6.3 µM. The TGI (OVCAR-5 ovarian) was over 33.3 µM, the GI50 (MOLT-4 leukemia) was 6.36 µM and the TGI (MOLT-4 leukemia) was over 33.3 µM.
